Results taken from the METLIN SMRT retention time set (Domingo-Almenara et al. 2019).

test: gradient 5% acetonitrile 3 min, to 50% in 2 min, to 85% in 15 min, held 3 min, 100 µL/min; conditions: column: Zorbax Extend-C18 2.1 x 50 mm; eluents: water / acetonitrile, 0.1% formic acid
Method in brief: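 Over 3 months, pure standards in mixtures of ~100 molecules were run by HPLC coupled to a quadrupole time-of-flight mass spectrometer in positive and negative ionization mode. The column was a Zorbax Extend-C18 (2.1 × 50 mm, 1.8 μm) at 100 μL/min, eluted with water and acetonitrile each holding 0.1% formic acid, with 40 μL dead and 900 μL dwell volumes. Retention time was determined from adduct peaks chosen by software and checked manually.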

SMILES | RP-LC retention time [s]
CCn1cc(C(=O)Nc2ccc(C)c(C)c2)c(S(=O)(=O)N2CCSCC2)n1 | 1050
Cc1ccc(N2CC(c3noc(-c4cc(F)cc(F)c4)n3)CC2=O)cc1 (centres undefined) | 1060
Cc1cc(NC(=O)Cn2cnc(-c3ccc(Cl)cc3)cc2=O)no1 | 735
Cc1nc2ccn(Cc3ccco3)c(=O)c2cc1C(=O)NCCc1c[nH]c2ccccc12 | 768
O=C(Cc1cc(-c2ccc3c(c2)OCCO3)on1)N1CCN(c2ccccc2F)CC1 | 895
Cc1noc(C)c1CN1CCCC(C)(c2nc(-c3ccccc3)no2)C1 (centres undefined) | 623
CCCCn1c(CN2CCCC2)nc2cc(NC(=O)c3ccco3)ccc21 | 626
COC(=O)c1ccc(Cl)cc1NC(=O)N(C)CCc1c(C)nn(C)c1C | 873
COc1cccc(CNC(=O)C2CCCN2S(=O)(=O)c2ccc3c(c2)C(C)(C)C(=O)N3C)c1 (centres undefined) | 821
Cc1ccc(C(=O)NC2CCN(c3ncnc4c3CCC4)C2)s1 (centres undefined) | 606
Cc1noc(C)c1S(=O)(=O)N1CCC(c2nc(CCOCc3ccccc3)no2)C1 (centres undefined) | 984
COc1cccc(CNC(=O)Nc2ccc(-c3nc(-c4cc(C)ccc4C)co3)cc2)c1 | 1180
CC(CNC(=O)Cc1csc2nc(-c3ccccc3)cn12)c1ccccc1 (centres undefined) | 841
Cc1cc(C(=O)N[C@@H]2CN(c3ncccn3)C[C@H]2CO)c(C)o1 | 616
CCc1cccc(NC(=O)N2CCc3nc[nH]c3C2)c1 | 606
Cc1ccc(S(=O)(=O)N2CCC(n3cnnc3C)CC2)c(C)c1 | 713
COc1ccccc1-c1nn2c(-c3cc(C(C)C)[nH]n3)nnc2s1 | 872
COc1ccc(Cl)cc1NC(=O)c1cn(C)c2ncccc12 | 955
Cc1ccc(-c2noc(-c3ccc4c(c3)OCCO4)n2)cc1 | 1250
CCN1CCn2cc(S(=O)(=O)Nc3cccc(C(=O)OC)c3)cc2C1=O | 703
CCN(CC)CCOCCOC(=O)C1(c2ccccc2)CCCC1 | 810
O=C(CCC1CCCC1)Nc1nc(-c2ccc(Cl)cc2)cs1 | 1290
O=C(Cc1ccccc1Br)N1CCN(c2cc(-c3ccccc3)[nH]n2)CC1 | 853

SMILES | RP-LC retention time [s]
COc1cc(CNC(=O)Cn2ccc3c(=O)n(C)c(=O)n(C)c32)cc(OC)c1 | 662
O=C(Nc1nc(-c2ccccc2)c(-c2ccccc2)s1)C1=COCCO1 | 1060
O=S(=O)(c1cccn2c(SCc3ccc(F)cc3)nnc12)N1CCc2ccccc2C1 | 944
Cn1nccc1-c1cccc(-c2noc(Cc3ccc(F)cc3)n2)c1 | 1040
O=C(Nc1ccc2c(c1)CCCN2S(=O)(=O)c1ccccc1)c1c(F)cccc1Cl | 1080
Cc1cc(Br)ccc1NC(=O)Cn1cnc2nc3c(cc2c1=O)CCCC3 | 777
Cc1noc(C)c1CNC(=O)Cc1cccc(Cl)c1 | 742
O=C(c1ccc2ccnc(N3CCN(c4ccccc4)CC3)c2c1)N1CCC(N2CCCCC2)CC1 | 589
CCCN1C(=O)COc2ccc(-c3noc(C4CC(=O)N(c5ccc(C)cc5)C4)n3)cc21 (centres undefined) | 941
COc1ccc(-c2ncc(NC(=O)C3CCC3)cn2)cc1 | 848
O=C(NCC1CC1)C1CCN(C(=O)c2ncn3c2COC(c2ccc(F)cc2)C3)CC1 (centres undefined) | 699
Cc1oc(-c2ccc(NC(=O)CC(C)(C)C)cc2)nc1Cn1cccn1 | 883
Cc1ccc(N2CN(CC(=O)Nc3cccc(Cl)c3)S(=O)(=O)c3cccnc32)cc1 | 1030
COc1ccccc1N1CCN(c2nnc(-c3nnc(C)o3)c3ccccc23)CC1 | 889
COc1ccc(-c2noc(CN3C(=O)COc4ccc(Cl)cc43)n2)cc1 | 1050
COc1ccc(NC(=O)Cn2nc3nc(Nc4ccc(F)cc4)ccn3c2=O)cc1Cl | 718
c1cc(Cc2nc(-c3ccc4c(c3)ncn4CCN3CCCCC3)no2)cs1 | 632
O=S(=O)(c1ccc(Cl)cc1)c1ccc(N2CCN(c3ncccn3)CC2)nn1 | 884
CC(C)C(=O)Nc1ccc(-n2cnc(C(=O)N3CCN(C4CCCCC4)CC3)c2)nc1 | 601
COc1ccc(-n2cc(C(=O)OCC3CCCO3)c3ccccc3c2=O)cc1 (centres undefined) | 993
Cc1ccccc1NC(=O)Cn1c(=O)n(-c2ccc(F)cc2)c2ncccc21 | 814
COc1cccc(Cn2nc3c(S(=O)(=O)N4CCCC4)cccn3c2=O)c1 | 814
O=C(Cc1csc(Nc2ccc(Cl)cn2)n1)N1CCCc2ccccc21 | 919

SMILES | RP-LC retention time [s]
Cc1ccc(Cc2nc(-c3ccc4c(c3)nnn4CCN3CCOCC3)no2)cc1 | 703
CCCCc1ccc(NC(=O)N2CCC(c3cc(N)on3)CC2)cc1 | 876
Cc1ccc(S(=O)(=O)N2C[C@@H](F)C[C@H]2C(=O)N2CCc3ccccc3C2)cc1F | 954
CCC1CN(C(=O)N2CCC(C(=O)NCCCN3CCCCC3)CC2)c2ccccc2O1 (centres undefined) | 643
CCCCOc1ccc(C(=O)N2CCN(c3nc4ccncc4n(C)c3=O)CC2)cc1 | 702
Cc1ccc(NC(=O)C2CC(=O)N(c3cccc(NC(=O)C(C)C)c3)C2)cc1Cl (centres undefined) | 872
Cn1cnc2ccc(-c3noc(CNS(=O)(=O)c4ccccc4)n3)cc21 | 739
CN(CCc1ccccn1)C(=O)C1CCN(c2cn[nH]c(=O)c2)CC1 | 536
CCc1nc2cc(-c3noc(-c4ccc(OC)c(F)c4)n3)ccc2o1 | 1170
Cc1ccc(-n2c(=O)c3sccc3n(Cc3nc(-c4ccc(C)c(C)c4)no3)c2=O)cc1 | 1150
COc1ccc(CNC(=O)c2nc(N3CCOCC3)c3ccccc3n2)cc1 | 662
O=C(NCc1ccc(Br)cc1)c1cn2ccccc2n1 | 726
OC(CN1CCC(Cc2ccc(F)cc2)CC1)c1ccc(Cl)cc1 (centres undefined) | 825
CCCc1cc(N2CCN(C(=O)c3ccc(C#N)cc3)CC2)nc2nnc(C)n12 | 610
O=C(C1=NN(Cc2ccc(F)cc2)c2ccccc2S1(=O)=O)N1CCCCC1 | 885
CCOCC(=O)Nc1ccc2c(c1)Sc1ncccc1C(=O)N2C(C)C | 764
CC(C)(C)c1cc(C(C)(C)C)c2c(c1)C(O)(C(F)(F)F)C(=O)O2 (centres undefined) | 1250
Cc1nnc(C2CCCCCN2C(=O)c2cnco2)o1 (centres undefined) | 618
CCn1cc(-c2nc(C)c(C(=O)NCc3cc(F)cc(F)c3)s2)c2cccnc21 | 884
O=C(c1ccccc1Cl)N1CCN(C(=O)c2nnn3c2COC(c2ccccc2)C3)CC1 (centres undefined) | 858
O=C(Nc1ccc2nc3n(c(=O)c2c1)CCCC3)Nc1ccc(F)cc1F | 690
COc1ccc(CN2C=C(C(=O)OCc3noc(-c4ccc(C)cc4)n3)C(C)=NS2(=O)=O)cc1 | 1170
Cc1nnc2c(NC(=O)c3ccccn3)cccn12 | 659

SMILES | RP-LC retention time [s]
O=C(NCCCN1CCOCC1)C1CCCN(c2ncc(-c3cccc(F)c3)cn2)C1 (centres undefined) | 653
CCOC(=O)C1CCN(c2nnc(-c3nnc(CC)o3)c3ccccc23)CC1 | 977
CCCn1cc(CCNS(=O)(=O)c2ccc(C(C)(C)C)cc2)c2cccnc21 | 1070
O=C(C1CCN(c2nc3ccc(-c4ccc(F)cc4)nc3s2)CC1)N1CCOCC1 | 864
COC(=O)c1ccc2c(=O)n(-c3cc(OC)cc(OC)c3)c(N3CCN(C(C)C)CC3)nc2c1 | 668
CCCn1cc(C(=O)Nc2ccc(F)cc2)c(S(=O)(=O)N2CCSCC2)n1 | 1030
CCc1cc(=O)n(CC(=O)Nc2cccc(Cl)c2C)c(N2CCOCC2)n1 | 771
Cc1cc(N2CCN(C(=O)Nc3ccccc3C)CC2)nc(N2CCOCC2)n1 | 613
CCN(C(=O)Cn1nc2n(c1=O)CCCCC2)c1ccccc1 | 709
CC(C)Cn1cc(CCNC(=O)Nc2cccc(Br)c2)c2cccnc21 | 904
CC1CCN(S(=O)(=O)c2ccc(-c3nnc(C(=O)NCCCN4CCOCC4)o3)cc2)CC1 | 664
CCCN1CCN(CCCNc2nc(-c3ccc(OC)cc3)nc3ccccc23)CC1 | 576
CC(C)C(=O)Nc1ccc(C(=O)NCCNS(=O)(=O)c2ccc3c(c2)OCCO3)cc1 | 661
CCN1c2ccc(C)cc2C(=O)NC12CCN(C(=O)c1cccc(F)c1)CC2 | 835
O=C(NC1CC1)c1nc(C(=O)N2CCN(c3ccccc3)CC2)cs1 | 759
COc1cc(NC(=O)N2CCCN(c3ccc(=O)n(-c4ccc(F)cc4)n3)CC2)cc(OC)c1OC | 702
Cc1nn2c(CNS(=O)(=O)Cc3cccc(F)c3)c(-c3ccccc3)nc2s1 | 935
COc1ccc(CC(=O)N2CCC3(C2)C(=O)Nc2ccccc23)cc1Cl (centres undefined) | 761
Cc1noc(C)c1S(=O)(=O)N1CC(c2nc(CCOCc3ccccc3)no2)C1 | 979
CCOC(=O)c1sc(NC(=O)COc2ccccc2Br)nc1C | 1050
